Holding throughout (test): DTP human tumour cell line panel, 48 h
Experiment [1] concerns HT29 colon.
The subject of experiment [2] is EKVX NSCLC.
Experiment [3] relates to ACHN renal.
The test system of experiment [4] is NCI-H460 lung.
For experiment [5], the system named is HCC-2998 colon.
Experiment [6] concerns OVCAR-8 ovarian.
For experiment [7], the system named is HL-60(TB) leukemia.
Experiment [8] deals with UO-31 renal.
The test system of experiment [9] is NCI-H522 lung.
Experiment [10] concerns M14 melanoma.

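Step 1: Grow cells in 96-well plates. Step 2: Expose to compound for 48 hours at 5 concentrations. Step 3: Interpolate endpoints linearly; if unreached, use highest concentration. GI50: concentration for 50% inhibition of growth. TGI: total growth inhibition.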

Regarding `NS(=O)(=O)c1ccc(N=Nc2ccc(O)c(C(=O)O)c2)cc1`, the total growth inhibition concentration (TGI) in experiment [1], in experiment [2], in experiment [3], in experiment [4], in experiment [5] and in [6] was > 100 µM in each case. Further, the TGI in experiment [7], in experiment [8], in experiment [9] and in experiment [10] was > 100 µM in each case.

Regarding `Cc1ccc(/C=C2\N=C(N3CCCC(CO)C3)NC2=O)cc1` (stereo not drawn), the total growth inhibition concentration (TGI) in [1], in [2], in experiment [3], in experiment [5], in experiment [6] and in [7] was > 100 µM each time. The concentration for total growth inhibition (TGI) in [8], in [9] and in [10] was > 100 µM throughout.

On to `CCOc1cc2c(cc1O)C(N)C[C@@H]1[C@@H]2CC[C@]2(C)[C@@H](O)CC[C@@H]12` (stereo partly drawn), for which the TGI in experiment [1], in experiment [2], in experiment [3], in experiment [4], in [5] and in experiment [6] was > 100 µM in each case. The total growth inhibition concentration (TGI) (in general, the concentration at which net growth stops) is 46.5 µM in experiment [7], > 100 µM in experiment [8], > 100 µM in experiment [9] and 98.4 µM in [10].

For `CN(C)CCCNC(=O)c1cn2c(ccc3sc4ccccc4c(=O)c32)n1`, the total growth inhibition concentration (TGI) in experiment [1] amounted to 2.74 µM; in [2], 31.6 µM; in experiment [3], 25.8 µM; in experiment [4], 2.73 µM; in experiment [5], 25.4 µM; in [6], 10.1 µM. For the same molecule, the concentration for total growth inhibition (TGI) was determined as 22.2 µM in [7], 24.3 µM in experiment [8], 32.4 µM in experiment [9] and 28.1 µM in experiment [10].

For `Cc1ccc2c(c1C)C(=O)/C(=C/c1cccc(C)c1C(=O)O)C2`, the concentration for total growth inhibition (TGI) in experiment [1], in experiment [2], in experiment [3], in [4], in experiment [5] and in experiment [6] was > 100 µM each time. Further, the TGI was > 100 µM in experiment [7], > 43 µM in experiment [8], > 100 µM in [9] and > 100 µM in experiment [10].

Regarding `CCCCCCCCCCCCO[P+](=O)OCCCCCCCCCCCC`, the concentration for total growth inhibition (TGI) in experiment [1], in [2], in [3], in experiment [4], in [5] and in experiment [6] was > 100 µM each time. The TGI in [7], in experiment [8], in experiment [9] and in experiment [10] was > 100 µM throughout.

As to `CSCCCNC(=O)[C@H](CSC)NC(=O)c1csc(CCNC(=O)[C@@H](NSc2ccccc2[N+](=O)[O-])C(C)O)n1` (stereo partly drawn), the total growth inhibition concentration (TGI) in experiment [1], in experiment [2], in experiment [3], in experiment [4], in experiment [5] and in [6] was > 100 µM in each case. Also, the TGI in experiment [7], in [8], in experiment [9] and in experiment [10] was > 100 µM in each case.

Regarding `CN1CCN([C@H]2C[C@H]3[C@@H]4CC=C5C[C@@H](O)CC[C@]5(C)[C@H]4CC[C@]3(C)[C@H]2O)CC1`, the total growth inhibition concentration (TGI) in experiment [1] was 28.6 µM; in experiment [2], > 100 µM; in [3] it was > 100 µM; in experiment [4], > 59.2 µM; in experiment [5] it was > 100 µM; in experiment [6] it was > 57.1 µM. The total growth inhibition concentration (TGI) in experiment [7] was 39.7 µM; in [8], > 100 µM; in [9], > 100 µM; in experiment [10] it was 33.9 µM.

For the molecule `COc1ccc(C2=NC(c3ccc(Cl)cc3)C(c3ccc(Cl)cc3)N2C(=O)N2CCNC(=O)C2)c(OC(C)C)c1` (stereo not drawn), the GI50 (as a rule, the concentration that inhibits growth by half) in [1] is 3.27 µM; in experiment [2] it was 2.08 µM; in [3] it was 1.89 µM; in experiment [4], 1.95 µM; in experiment [5], 2.3 µM; in experiment [6], 2.46 µM. Moreover, the GI50 in [7] is 3.62 µM; in experiment [9], 2.09 µM; in experiment [10], 1.84 µM. Further, the concentration for total growth inhibition (TGI) in [1] was > 10 µM; in [2] it was 4.18 µM; in experiment [3], 3.33 µM; in [4], 3.82 µM; in [5] it was 5.57 µM; in [6], 6.14 µM. Also, the results for the TGI in experiment [7], in experiment [9] and in [10] were > 10 µM, 4.09 µM and 3.31 µM, respectively.

Take `CCCCC[C@H]1CCCCCCCCCC(=O)OC2C(O[C@@H]3OC(C)[C@H](OC(=O)[C@@H](C)CC)C(O[C@@H]4OC(C)[C@H](O)C(O)[C@@H]4O)[C@@H]3OC(=O)[C@H](C)CC)[C@H](OC3C(O)[C@@H](O)C(C)O[C@H]3O1)OC(CO)[C@H]2O` (stereo partly drawn): the TGI in experiment [1] is 30.3 µM; in [2], 36.7 µM; in [4], 32.5 µM; in [5], 31.8 µM; in experiment [6], 35.5 µM; in experiment [7], 35.9 µM. Besides, the TGI in [8] was 30.8 µM; in experiment [9], 34.2 µM; in [10] it was 32.3 µM.

With `O=[N+]([O-])/C(C(Cl)=C(Cl)Cl)=C(/Nc1ccccc1)Sc1ccccc1`, the TGI is 48.7 µM in experiment [1]; 38 µM in experiment [2]; 33.1 µM in experiment [3]; 41.6 µM in experiment [4]; 32.8 µM in [5]; 33.6 µM in experiment [6]. Moreover, the total growth inhibition concentration (TGI) was 42.4 µM in experiment [7], 27.5 µM in experiment [8], 33.6 µM in experiment [9] and 36.5 µM in experiment [10].

Consider `CC/C(N)=N\NC(=O)OC(C)(C)C`, for which the TGI in experiment [1], in experiment [2], in experiment [3], in [5], in experiment [6] and in experiment [7] was > 100 µM each time. Moreover, the total growth inhibition concentration (TGI) in experiment [8], in experiment [9] and in experiment [10] was > 100 µM in each case.

`Cc1ccc(NC(=O)CC(=O)n2nc(C)c(N=Nc3cccc(C)c3)c2C)cc1`: the TGI in experiment [1], in experiment [2], in [3], in experiment [4], in experiment [5] and in experiment [6] was > 100 µM throughout. Moreover, the TGI in experiment [7], in experiment [8], in experiment [9] and in experiment [10] was > 100 µM each time.

Take `CC(C)(C)[Si](C)(C)OC[C@H](/C=C\CCCC(=O)O)NC1(c2ccccc2)c2ccccc2-c2ccccc21`: the TGI was determined as 47.6 µM in [1]; 40.9 µM in experiment [2]; 49.5 µM in experiment [3]; 59.8 µM in experiment [4]; 37.2 µM in [5]; 46.2 µM in experiment [6]. Further, the TGI in [7] was 37 µM; in [8], 34.4 µM; in [9] it was > 100 µM; in experiment [10], 38.8 µM.

As for `COc1ccc(CNc2nc3ccccc3nc2C(=O)O)cc1`, the TGI in [1], in experiment [2], in experiment [4], in experiment [5], in experiment [6] and in experiment [7] was > 100 µM in each case. Besides, the TGI in experiment [8], in experiment [9] and in experiment [10] was > 100 µM throughout.

As to `CCOC(=O)CCC(NC(=O)c1ccc(Nc2nc3ccccc3nc2C(=O)OCC)cc1)C(=O)OCC` (stereo not drawn), the concentration for total growth inhibition (TGI) in [1] is > 89.7 µM; in experiment [2], 40.1 µM; in experiment [3] it was 11.5 µM; in experiment [4], > 100 µM; in [5], > 100 µM; in experiment [6], 7.97 µM. The TGI in experiment [7] was > 100 µM; in experiment [8], 12.2 µM; in [9], 16.7 µM; in [10] it was > 100 µM.

Regarding `O=[N+]([O-])C(C=C(n1nnc2ccccc21)n1nnc2ccccc21)=C(n1nnc2ccccc21)n1nnc2ccccc21`, the TGI in [1], in experiment [2], in experiment [3], in experiment [4], in [5] and in [6] was > 100 µM throughout. In addition, the TGI in experiment [7], in [8] and in experiment [10] was > 100 µM throughout.

Take `CC(C)c1ccc(/C=C2\CSCC3=C2N=C2SCC(=O)N2C3c2ccc(C(C)C)cc2)cc1` (stereo not drawn): the concentration for total growth inhibition (TGI) in [1], in [2], in experiment [3], in experiment [4], in [5] and in [6] was > 100 µM throughout. For the same molecule, the TGI in [7], in [8] and in [10] was > 100 µM throughout.

For `CCCCCCCCCCCCOP(=O)(O)OP(=O)(O)OCC1OC(n2cc(C)c(=O)[nH]c2=O)CC1O` (stereo not drawn), the total growth inhibition concentration (TGI) in [1], in experiment [2], in [3], in experiment [4], in [5] and in experiment [6] was > 100 µM in each case. In addition, the TGI in [7], in experiment [8], in experiment [9] and in experiment [10] was > 100 µM throughout.

With `O=S(=O)(O)c1ccc2c(N=Nc3ccc(Sc4ccc(N=Nc5c(O)ccc6cc(S(=O)(=O)O)ccc56)cc4)cc3)c(O)ccc2c1`, the concentration for total growth inhibition (TGI) in experiment [1], in [2], in experiment [3], in [4], in experiment [5] and in experiment [6] was > 100 µM throughout. Also, the TGI in experiment [7], in experiment [8], in experiment [9] and in [10] was > 100 µM in each case.

Take `Cc1ccc(S(=O)(=O)Nn2c(O)c(C#N)c(-c3ccc([N+](=O)[O-])cc3)c(C#N)c2=O)cc1`: the TGI in [1], in [2], in experiment [3], in experiment [4], in [5] and in experiment [6] was > 100 µM each time. Also, the TGI in experiment [7], in [9] and in experiment [10] was > 100 µM each time.

For the molecule `O=c1cc(N2CCCC2)[nH]c(=O)n1-c1ccc(Cl)cc1`, the TGI in [1], in experiment [2], in experiment [3], in [4], in experiment [5] and in [6] was > 100 µM each time. The TGI in experiment [7], in experiment [9] and in [10] was > 100 µM throughout.

As to `CN1CCC2(CC1)C(=NC1CCCCC1)NC(=O)N2c1ccccc1`, the TGI in [1], in experiment [2], in [3], in experiment [4], in experiment [5] and in [6] was > 100 µM throughout. Besides, the TGI in experiment [7], in [8] and in experiment [10] was > 100 µM throughout.

With `CCOC(=O)C(C)N1C(=O)c2ccccc2S1(=O)=O` (stereo not drawn), the TGI in experiment [1], in experiment [2], in experiment [4], in experiment [5], in [6] and in experiment [7] was > 100 µM in each case. The TGI in experiment [8] and in experiment [9] was > 100 µM each time.

With `C=C(C)[C@@H]1CC[C@]2(C(=O)NC(C)=O)CC[C@]3(C)[C@H](CC[C@@H]4[C@@]5(C)CCCNC(C)(C)[C@@H]5CC[C@]43C)[C@@H]12`, the GI50 in experiment [1] is 1.21 µM; in experiment [2], 1.6 µM; in experiment [3] it was 1.77 µM; in experiment [4], 1.64 µM; in experiment [5] it was 1.31 µM; in experiment [7], 1.35 µM. The figures for the GI50 in [8] and in experiment [9] were 1.4 µM and 1.66 µM, respectively. Moreover, the concentration for total growth inhibition (TGI) in experiment [1] stood at 3.06 µM; in [2], 3.23 µM; in [3], 3.15 µM; in experiment [4], 3.13 µM; in experiment [5], 2.69 µM; in experiment [7], 3.2 µM. Further, the TGI in [8] was found to be 2.69 µM; in experiment [9] it was 3.56 µM.

Source of the values: PubChem BioAssay (NCI).
